From patent US20260345524A1, “TARGETING KDM2A TO ENHANCE IMMUNE RESPONSIVENESS TO CANCERS” (The Board of Trustees of the Leland Stanford Junior …, priority 2023, published 2026)

Tests used:
HNSCC = settings: human, in vivo; cited from earlier work
CTLA-4 = settings: cited from earlier work
[1] = tested on: NSD1-inhibited MOC1 tumors; test: Luciferase expressing MOC1 tumors, EZH2 inhibitor treatment, bioluminescence imaging; type: in vivo, mouse (B6 wild type); settings: 200 mg/kg daily, luminescence day 10
Description: FIG. 14. Luciferase expressing MOC1 cells, transduced with scramble control shRNA, NSD1 shRNA, or both NSD1 shRNA and KDM2A shRNA, were injected to B6 wild type mice subcutaneously. The mice were treated 24 hours later with or without EZH2 inhibitor (EPZ-6438) at a dose of 200 mg/kg daily, with or without anti-PD-1 antibody (200 μg/mouse). Bioluminescence imaging was used to assess tumor burden; quantified luminescence signal on day 10 is shown in photons per second. *p<0.05.

CTLA4 = settings: cited from earlier work
HPV-unrelated HNSCC = test: neoadjuvant pembrolizumab phase II window-of-opportunity trial (NCT02296684); type: in vivo, human
Description: FIGS. 1A-1D: NSD1 inactivation downregulates the expression of CXCL9 and CXCL10 in HNSCC. RNA expression and genomic sequencing data from a multicenter, phase II, window-of-opportunity trial (NCT02296684) (23) was examined for CXCL9 and CXCL10 expression and NSD1 mutations. In this trial, neoadjuvant pembrolizumab was administered to patients with locally advanced, resectable, HPV-unrelated HNSCC two to three weeks prior to definitive surgical resection. (A) Comparison of CXCL9 and CXCL10 baseline expression to pathologic tumor response (pTR), as defined in (23), to the anti-PD-1 antibody pembrolizumab. Circles represent responders. ▴ A represent non-responders with wild-type NSD1. Gray triangles represent non-responders with mutated NSD1. (B) Tumor histology from the two patients in the trial that had tumors with NSD1 mutations. Histology of NSD wild-type tumors is also shown. […]
CXCL9 and CXCL10 in human HNSCC datasets. […] The dataset was subsequently analyzed using Seurat (25): The series matrix was loaded into a Seurat object and was filtered to exclude poor quality or dying cells by removing cells with a mitochondrial genome fraction of 0.4 or greater as well as those with a unique feature count of fewer than 200 genes. […] Expression of CXCL9 and CXCL10 was analyzed within samples that had been profiled using whole exome sequencing, such that the NSD1 mutation status was known. […]

[2] = not told; cited from earlier work
methyl transferases = settings: cited from earlier work
KDM2A [3] = settings: cited from earlier work
[4] = tested on: other JmjC lysine demethylases; settings: KDM2A/7A versus other JmjC lysine demethylases; cited from earlier work
[5] = tested on: histone acetyl transferases; settings: cited from earlier work
FaDu tumor spheroids = test: Spheroid T cell infiltration assay, CD19-CAR T cells co-cultured with CD19-expressing tumor spheroids; type: cell-based, human; settings: daminozide 1.5 μM, added the day before T cells; 3 days co-culture
Description: FIG. 3A-3G. KDM2A inhibition reverses the immune cold phenotype induced by NSD1 inactivation and induces T cell infiltration into the tumor microenvironment. (A) Overview and illustration of experiment workflow. Tumor spheroids were established from HNSCC tumor cells transfected to express truncated CD19 on the cell surface and grown in submerged Matrigel. The spheroids were co-cultured with CD19-CAR-T cells for three days and then isolated for analysis by confocal microscopy. (B) Assessment by qRT-PCR of CXCL9 and CXCL10 expression after CXCL9 or CXCL10 overexpression (OE) in FaDu cells transduced to express shRNA targeting NSD1 (NSD1-sh). (C) Representative images of tumor spheroids after co-cultured with CD19-CAR-T cells for 3 days. Ctrl=vector control; NSD1-sh=shRNA targeting NSD1; CXCL9-OE=overexpression construct for CXCL9; CXCL10-OE=overexpression construct for CXCL10; KDM2A-sh=shRNA targeting KDM2A. Scale bar=50 um. (D) Representative images of tumor spheroids stained with anti-CD3 antibody (red) and DAPI (blue). […] (E) Quantification of CD3+ cells per 100 cells in the spheroids. […] (G) Quantification of CD3^+ cells per 100 cells in the spheroids. […]
Spheroid T cellinfiltration assay. […] After 3 days of co-culture, the spheroid Matrigel domes were harvested and analyzed by microscopy. […] The stained samples were mounted on glass slides and analyzed by LSM700 confocal microscopy (Zeiss). […]

KDM2A [6] = settings: cited from earlier work; remark: listed apart in the source

## nivolumab: anti-PD-1 antibody
HNSCC
  clinical response in recurrent/metastatic HNSCC: impressive responses in recurrent/metastatic HNSCC, though only in a minority of patients

## ipilimumab: fully humanized CTLA4 antibody
CTLA-4; 10 mg/kg
  grade III/IV enterocolitis: ~ 15%
CTLA-4; additional irAEs
  hepatitis: 5-10%
  hypophysitis: 5%
  leucopenia: < 2%
  pancreatitis: < 2%
  rash/pruritus: > 50%
  uveitis: < 2%

## CCN(c1cc(-c2ccc(CN3CCOCC3)cc2)cc(C(=O)NCc2c(C)cc(C)[nH]c2=O)c1C)C1CCOCC1 [EPZ-6438]
[1]
  tumor growth in WT mice (EZH2 inhibition): does reduce tumor growth in WT mice but not to the extent that KDM2A inhibition appeared to achieve

## Tremelimumab: fully humanized CTLA4 antibody
CTLA4; 10 mg/kg monthly vs 15 mg/kg every 3 months, phase II
  toxicity: toxicity was doubled
CTLA4; at one month
  sustained plasma level in the majority of responders: > 30 µg/mL
CTLA4; single antibody infusion, 0.01 mg/kg to 15 mg/kg
  dose at which objective responses were evident: ≥ 3 mg/kg

## pembrolizumab: anti-PD-1 antibody
HPV-unrelated HNSCC; neoadjuvant, two to three weeks prior to surgery
  response of tumors with low CXCL9 or CXCL10 expression: None of the tumors with low CXCL9 or CXCL10 expression exhibited response
HPV-unrelated HNSCC; two patients
  response of patients with NSD1 inactivating mutations: Both were non-responders
HNSCC
  clinical response in recurrent/metastatic HNSCC: impressive responses in recurrent/metastatic HNSCC, though only in a minority of patients

## CC(=O)N1c2ccccc2[C@@](C#N)(c2ccccc2)[C@@H]1c1cncc(CCCCCCCN2CCCC2)c1 [KDM2A/7A-IN-1]
[2]
  cell permeability: cell-permeable
Methyl transferases
  activity on methyl transferases: inactive
KDM2A [3]
  IC50: 160 nM
[4]
  selectivity over other JmjC lysine demethylases: 75 fold
[5]
  activity on histone acetyl transferases: inactive

## CN(C)NC(=O)CCC(=O)O [daminozide]
FaDu tumor spheroids
  T cell infiltration into tumor spheroids (CD3+ cells per 100 cells): increased the number of infiltrating T cells into tumor spheroids
KDM2A [6]
  effect on KDM2A histone demethylation: significantly abrogate the effect of KDM2A on histone demethylation
